Assay results taken from US20100105626A1, “Novel Analogues of Antimicrobial and Anticancer Peptide Synthesized and Produced from Gaegurin 5” (PROMEDITECH, INC, priority 2006, published 2010).
Where no end group is shown, it is not given here.

Key:
Type in all cases: cell-based
Bacillus subtilis = assay: Antimicrobial activity, MIC by standard broth microdilution; conditions: Gram-positive
Procedure: (§1) Antimicrobial activity was determined by the standard broth microdilution method by measuring the MIC values against diverse microorganisms. In brief, Luria-Bertani medium was used as a broth medium. 30 μl of sample (2 mg/ml) prepared from Example 1 and 270 μl of fluid medium were added to lane 1 well of 96-well microtiter plates and to remaining lanes of the wells, only 150 μl of medium was added thereto. 150 μl of sample solution in lane 1 was mixed with lane 2 to prepare diluted solution (×2). With similar diluting method to the above described method, serial dilution was performed to prepare 150 μl of diluted drug solution (×2) to the extent that the final drug concentration reached to the range from 1.6 to 200 μg/ml in respective well. 25 μl of the cell culture being grown to 10^6-10^8 colony forming unit/ml in 3 ml of broth was added to each well and the micro-titer plate was incubated for overnight at 37° C.

Escherichia coli = assay: as above; conditions: Gram negative
Procedure: as §1

Klebsiella pneumoniae = assay: as above; conditions: Gram negative
Procedure: as §1

Micrococcus luteus = assay: as above; conditions: Gram-positive
Procedure: as §1

Proteus mirabilis = assay: as above; conditions: Gram negative
Procedure: as §1

Pseudomonas aeruginosa = assay: as above; conditions: Gram negative
Procedure: as §1

Salmonella typhimurium = assay: as above; conditions: Gram negative
Procedure: as §1

Shigella dysentariae = assay: as above; conditions: Gram negative
Procedure: as §1

Staphylococcus aureus = assay: as above; conditions: Gram-positive
Procedure: as §1

Staphylococcus epidermis = assay: as above; conditions: Gram-positive
Procedure: as §1

erythrocyte = test system: erythrocyte
Procedure: 3 ml of blood sample collected from healthy male was mixed with PBS (phosphate buffered saline, isotonic solution) with a ratio of 1:1 (v/v), centrifuged to remove buffy coat and blood plasma and washed with physiological saline solution three times to isolate pure erythrocyte. The erythrocyte was suspended in 20 ml of PBS and pre-incubated in water bath at 37° C. for 15 mins. […] of peptide solution was mixed with […] of erythrocyte solution in order to prepare various mixed solution containing various final concentrations of the peptides, i.e., 100, 50, […] and the solution was incubated in water bath at 37° C. for 15 mins. The supernatant was centrifuged with centrifuge and 100 ml of the supernatant was diluted with ImI of PBS to determine its absorbance at 550 nm. The percentage of hemolysis (%) was determined from the relative attenuation of the absorbance of sample compared with that of the suspension treated with 0.2% Triton X-100.

[1] = test system: SK-MEL-2 (skin cancer cell line)
Text: (§2) In order to confirm the anticancer activity of the analogues prepared by Example 1 on A549 (lung cancer cell line, ATCC, U.S.A.), A498 (kidney cancer cell line, Korean Cell Line Bank, Korea), HCT116 (colon carcinoma cell line, Korean Cell Line Bank, Korea), MKN45 (stomach cell line, Korean Cell Line Bank, Korea), NCI-H630 (liver cancer cell line, Korean Cell Line Bank, Korea), PC-3 (prostatic carcinoma cell line, Korean Cell Line Bank, Korea), SK-MEL-2 (skin cancer cell line, Korean Cell Line Bank, Korea) and SK-OV-3 (human solid cancer cell line, Korean Cell Line Bank, Korea), the standard microculture MTT method was performed with the procedure described in the literature (Angelina Quintero et al., J Pharm Pharmaceut Sci, Vol. 2, No. 3, pp 108-112, 1999; Ashtosh K. Pathak et al., J. Am Coll Nutr., Vol. 21, No. 5, pp 416-421, 2002). Each cell line was poured into 96 well microtiter plates and cultivated at 37° C. for 24 hrs. When the cell reached to exponential growth phase, the test sample was added to each plates and each cell was inoculated into the plates added with both of dissolved and non-dissolved DMSO to culture for 3 days. 50 μl of MTT (2 mg/ml) (M5655, SIGMA, U.S.A.) was added thereto and cultured for 3 hrs. The supernatant was removed and the wells were shaken weakly to dissolve formazan crystals. 150 μl of DMSO was added thereto. The non-treated well with cell was set to blank and the wells non-treated with drug were set to standard based on the cell viability. The UV absorbance was measured by microplate reader (SAFIRE, Tecan, Austria) to calculate the cell viability at 570 nm. The inhibition rate of cell growth was calculated by following Math FIG. 1. inhibition rate of cell growth (%)={1−(absorbance of treated cells/absorbance of non-treated cells)}×100 Math Figure 1 The IC value of each cell was calculated by the amount of drug causing to 50% reduction of the absorbance comparing with that of non-treated cells.

[2] = test system: A549 (lung cancer cell line)
Text: as §2

[3] = test system: HCT116 (colon carcinoma cell line)
Text: as §2

[4] = test system: SK-OV-3 (human solid cancer cell line)
Text: as §2

[5] = test system: MKN45 (stomach cell line)
Text: as §2

FLGWLFKWASK-NH2 (C-terminus assumed) [W4,8-GGN5N11]
Minimal inhibitory concentration (Bacillus subtilis): 3.2 µg/mL
Minimal inhibitory concentration (Escherichia coli): 50 µg/mL
Minimal inhibitory concentration (Klebsiella pneumoniae): 50 µg/mL
Minimal inhibitory concentration (Micrococcus luteus): 3.2 µg/mL
Minimal inhibitory concentration (Proteus mirabilis): >200 µg/mL
Minimal inhibitory concentration (Pseudomonas aeruginosa): >200 µg/mL
Minimal inhibitory concentration (Salmonella typhimurium): >200 µg/mL
Minimal inhibitory concentration (Shigella dysentariae): 12.5 µg/mL
Minimal inhibitory concentration (Staphylococcus aureus): 1.6 µg/mL
Minimal inhibitory concentration (Staphylococcus epidermis): 3.2 µg/mL

FLGWLFKWASKVL-NH2 [W4,8-GGN5N13, F-L-G-W-L-F-K-W-A-S-K-V-L]
hemolytic activity (in words) (erythrocyte): potent hemolytic activity

FLGWLFKWAWK-NH2 [model 27, F-L-G-W-L-F-K-W-A-W-K]
IC50 [1]: 14 µM

FLKWLFKWAKK-NH2 [model 26, F-L-K-W-L-F-K-W-A-K-K]
hemolytic activity (in words) (erythrocyte): much less hemolysis than the others
IC50 [2]: 14.5 µM
IC50 [3]: 14.8 µM
IC50 [4]: 12.6 µM

FLWWLFKWAWK-NH2 [model 28, F-L-W-W-L-F-K-W-A-W-K]
IC50 [2]: 15.9 µM
IC50 [3]: 14.8 µM
IC50 [5]: 13.8 µM
IC50 [1]: 13.2 µM
IC50 [4]: 14.6 µM
